# Patent US10023591B2, “Heterocyclic derivatives and use thereof” (C&C RESEARCH LABORATORIES, priority 2014, dated 2018)
# What was measured:
# [1] = tested on: STAT3; assay: STAT3 reporter gene assay (luciferase), LNCaP stable cell line pSTAT3-TA-luc, IL-6 stimulation; format: cell-based, human; conditions: Homo sapiens
# Summary of the method: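 LNCaP cells stably carrying pSTAT3-TA-luc were plated 24 h in 3% DCC-FBS medium, then given compound followed by IL-6 (10 ng/mL final) for 24 h at 37 °C. Luciferase was read from lysates, with CellTiter-Glo viability on a duplicate plate. Stimulated 0.1% DMSO wells served as uninhibited control.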
# [2] = tested on: STAT1; assay: STAT1 reporter gene assay (luciferase), U2OS stable cell line pGL4-STAT1-TA-luc, IFN-γ stimulation; format: cell-based, human; conditions: Homo sapiens, IFN-γ 50 ng/mL, 8 hours, read-out: IC50 (μM) pSTAT1
# Summary of the method: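 U2OS cells stably carrying a STAT1-driven luciferase reporter were treated with serially diluted compounds plus IFN-γ (50 ng/mL final) for 8 h at 37 °C in 10% FBS medium. Luciferase read after lysis; parallel plate assessed for cytotoxicity by CellTiter-Glo.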
# [3] = tested on: LNCaP prostate cancer cell line; assay: Cell growth inhibition assay, LNCaP (CellTiter-Glo); format: cell-based; conditions: Homo sapiens; LNCaP, 10,000 cells/well, medium with 10 ng/mL IL-6, 96 hours
# Protocol: (§1) The inhibitory effects of the compounds of the present invention against the growth of cancer cells were evaluated as shown below. The cancer cell lines including prostate cancer cell lines (LNCaP, DU-145), stomach cancer cell line (NCI-N87), and breast cancer cell lines (MDA-MB-468) were cultured under the protocol provided by each supplier. A medium supplemented with 10 ng/mL of IL-6 was used for LNCaP, a prostate cancer cell line, when treated with a drug. Each type of cells to be used in experiments was sub-cultured in a 96-well plate by counting the exact number of cells using Tali™ Image-based Cytometer (Life Technologies). In a 96-well plate, DU-145 was employed with 3,000 cells/well; NCI-N87 was employed with 5,000 cells/well; and LNCaP and MDA-MB-468 were employed with 10,000 cells/well. The cells were treated with the compounds listed in Examples which were diluted in various concentrations. Upon completion of the compounds treatment, LNCaP, DU-145, NCI-N87 cells were cultured at 37° C. under 5% CO2 for 96 hours, and MDA-MB-468 cells were cultured at 37° C. in air for 96 hours. Subsequently, the cells were observed under microscope and drug precipitation and particular findings were investigated and recorded. And then, the 96-well plate was placed at room temperature for 30 minutes, added with 20 pt/well of CellTiter-Glo solution (Cat No. G7573, Promega) and shaken for 10 minutes, followed by being subjected to the measurement using PHERAstar™ microplate reader (BMG LABTECH) according to the supplier's general luminometer protocol. Wells where only culture liquid added without cell plating were used as a negative control, whereas wells where culture liquid containing 0.1% DMSO instead of the compounds listed in Examples were used as a positive control.
# [4] = tested on: DU-145 prostate cancer cell line; assay: Cell growth inhibition assay, DU-145 (CellTiter-Glo); format: cell-based; conditions: Homo sapiens; DU-145, 3,000 cells/well, 96 hours
# Protocol: as §1
# [5] = tested on: NCI-N87 stomach cancer cell line; assay: Cell growth inhibition assay, NCI-N87 (CellTiter-Glo); format: cell-based; conditions: Homo sapiens; NCI-N87, 5,000 cells/well, 96 hours
# Summary of the method: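 Cells seeded at 3,000 (DU-145), 5,000 (NCI-N87) or 10,000 (LNCaP, MDA-MB-468) per well, LNCaP in medium with 10 ng/mL IL-6. Serially diluted compound for 96 h at 37 °C (MDA-MB-468 in air, others 5% CO2); viability by CellTiter-Glo luminescence versus 0.1% DMSO wells.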
Structure (SMILES),IC50 [1] [µM],IC50 [2] [µM],IC50 [3] [µM],IC50 [4] [µM],IC50 [5] [µM]
"CC(C)Oc1cc(OC(F)(F)F)cc(C(C)(C)c2cc(Cl)cc(NC(=O)c3cc4cc(CS(C)(=O)=O)ccc4s3)c2)c1 [Example 16, N-(3-chloro-5-(2-(3-isopropoxy-5-(trifluoromethoxy)phenyl)propan-2-yl)phenyl)-5-((methylsulfonyl)methyl)benzo[b]thiophene-2-carboxamide]",0.0057,> 50,0.0022,0.0018,–
"COc1ccc(C(C)(C)c2cc(Cl)cc(NC(=O)c3cc4cc(C(C)(C)S(C)(=O)=O)ccc4s3)c2)cc1 [Example 17, N-(3-chloro-5-(2-(4-methoxyphenyl)propan-2-yl)phenyl)-5-(2-(methylsulfonyl)propan-2-yl)benzo[b]thiophene-2-carboxamide]",0.045,> 50,0.08,0.039,–
"CC(C)(c1ccc(F)cc1)c1cc(Cl)cc(NC(=O)c2cc3cc(C(C)(C)S(C)(=O)=O)ccc3s2)c1 [Example 18, N-(3-chloro-5-(2-(4-fluorophenyl)propan-2-yl)phenyl)-5-(2-(methylsulfonyl)propan-2-yl)benzo[b]thiophene-2-carboxamide]",0.031,> 50,0.056,0.023,–
"CC(C)(c1ccc(F)cc1)c1cc(Cl)cc(NC(=O)c2cc3cc(C(C)(C)S(C)(=O)=O)c(F)cc3s2)c1 [Example 19, N-(3-chloro-5-(2-(4-fluorophenyl)propan-2-yl)phenyl)-6-fluoro-5-(2-(methylsulfonyl)propan-2-yl)benzo[b]thiophene-2-carboxamide]",0.029,> 50,0.043,0.022,–
"CC(C)(c1ccc(Cl)cc1)c1cc(Cl)cc(NC(=O)c2cc3cc(C(C)(C)S(C)(=O)=O)c(Cl)cc3s2)c1 [Example 23, 6-chloro-N-(3-chloro-5-(2-(4-chlorophenyl)propan-2-yl)phenyl)-5-(2-(methylsulfonyl)propan-2-yl)benzo[b]thiophene-2-carboxamide]",0.084,> 50,0.8,0.04,–
"CC(C)(c1cc(Cl)cc(NC(=O)c2cc3cc(C(C)(C)S(C)(=O)=O)ccc3s2)c1)c1ccc(Cl)s1 [Example 27, N-(3-chloro-5-(2-(5-chlorothiophen-2-yl)propan-2-yl)phenyl)-5-(2-(methylsulfonyl)propan-2-yl)benzo[b]thiophene-2-carboxamide]",0.075,> 50,0.029,0.024,–
"CC(C)(c1ccc(Cl)cc1)c1cc(Cl)cc(NC(=O)c2cc3cc(C4(S(C)(=O)=O)CCOCC4)ccc3s2)c1 [Example 34, N-(3-chloro-5-(2-(4-chlorophenyl)propan-2-yl)phenyl)-5-(4-(methylsulfonyl)tetrahydro-2H-pyran-4-yl)benzo[b]thiophene-2-carboxamide]",8.7,> 50,> 1.1,> 1.1,–
"Cc1noc(C)c1Oc1cc(NC(=O)c2cc3cc(C(C)(C)S(C)(=O)=O)ccc3s2)cc(Cl)n1 [Example 113, N-(2-chloro-6-((3,5-dimethylisoxazol-4-yl)oxy)pyridin-4-yl)-5-(2-(methylsulfonyl)propan-2-yl)benzo[b]thiophene-2-carboxamide]",0.18,> 50,–,–,0.27
"Cc1cc(Oc2cc(NC(=O)c3cc4cc(C(C)(C)S(C)(=O)=O)ccc4s3)cc(Cl)n2)cs1 [Example 114, N-(2-chloro-6-((5-methylthiophen-3-yl)oxy)pyridin-4-yl)-5-(2-(methylsulfonyl)propan-2-yl)benzo[b]thiophene-2-carboxamide]",0.063,> 50,–,–,0.13

# Second part, the molecule after the results:
IC50 [1] [µM],IC50 [2] [µM],IC50 [3] [µM],IC50 [4] [µM],IC50 [5] [µM],Structure (SMILES)
0.11,> 50,0.04,0.017,–,"CC(C)(c1ccc(Cl)cc1)c1cc(Cl)cc(NC(=O)c2cc3cc(CS(C)(=O)=O)ccc3s2)c1 [Example 21, N-(3-chloro-5-(2-(4-chlorophenyl)propan-2-yl)phenyl)-5-((methylsulfonyl)methyl)benzo[b]thiophene-2-carboxamide]"
0.015,> 50,0.024,0.014,–,"CC(C)(c1ccc(Cl)cc1)c1cc(Cl)cc(NC(=O)c2cc3cc(C(C)(C)S(C)(=O)=O)ccc3s2)c1 [Example 22, N-(3-chloro-5-(2-(4-chlorophenyl)propan-2-yl)phenyl)-5-(2-(methylsulfonyl)propan-2-yl)benzo[b]thiophene-2-carboxamide]"
0.9,> 50,> 1.1,> 1.1,–,"CC(C)(c1ccc(Cl)cc1)c1cc(Cl)cc(NC(=O)c2cc3cc(CS(=O)(=O)C(F)(F)F)ccc3s2)c1 [Example 24, N-(3-chloro-5-(2-(4-chlorophenyl)propan-2-yl)phenyl)-5-(((trifluoromethyl)sulfonyl)methyl)benzo[b]thiophene-2-carboxamide]"
0.034,> 50,0.072,0.066,–,"CC(C)(c1ccc(Cl)cc1)c1cc(Cl)cc(NC(=O)c2cc3cc(C(F)S(C)(=O)=O)ccc3s2)c1 (stereo not drawn) [Example 25, N-(3-chloro-5-(2-(4-chlorophenyl)propan-2-yl)phenyl)-5-(fluoro(methylsulfonyl)methyl)benzo[b]thiophene-2-carboxamide]"
0.054,> 50,0.03,0.023,–,"CC(C)(c1ccc(Cl)cc1)c1cc(Cl)cc(NC(=O)c2cc3cc(C4(S(C)(=O)=O)CC4)ccc3s2)c1 [Example 33, N-(3-chloro-5-(2-(4-chlorophenyl)propan-2-yl)phenyl)-5-(1-(methylsulfonyl)cyclopropyl)benzo[b]thiophene-2-carboxamide]"
0.015,> 50,0.01,0.0071,–,"CC(C)(c1ccc2sc(C(=O)Nc3cc(Cl)cc(Oc4ccc(OC(F)(F)F)cc4)c3)cc2c1)S(C)(=O)=O [Example 37, N-(3-chloro-5-(4-(trifluoromethoxy)phenoxy)phenyl)-5-(2-(methylsulfonyl)propan-2-yl)benzo[b]thiophene-2-carboxamide]"
0.018,> 50,0.0083,0.0053,–,"CC(C)(c1ccc2sc(C(=O)Nc3cc(Cl)cc(Oc4ccc(C(F)(F)F)cc4)c3)cc2c1)S(C)(=O)=O [Example 38, N-(3-chloro-5-(4-(trifluoromethyl)phenoxy)phenyl)-5-(2-(methylsulfonyl)propan-2-yl)benzo[b]thiophene-2-carboxamide]"
0.16,> 50,0.12,0.063,–,"CS(=O)(=O)Cc1ccc2sc(C(=O)Nc3cc(Cl)cc(Oc4ccc(Cl)cc4)c3)cc2c1 [Example 41, N-(3-chloro-5-(4-chlorophenoxy)phenyl)-5-((methylsulfonyl)methyl)benzo[b]thiophene-2-carboxamide]"
1.25,> 50,> 1.1,> 1.1,–,"O=C(Nc1cc(Cl)cc(Oc2ccc(Cl)cc2)c1)c1cc2cc(CS(=O)(=O)C(F)(F)F)ccc2s1 [Example 42, N-(3-chloro-5-(4-chlorophenoxy)phenyl)-5-(((trifluoromethyl)sulfonyl)methyl)benzo[b]thiophene-2-carboxamide]"
0.023,> 50,0.032,0.011,–,"CC(C)(c1ccc2sc(C(=O)Nc3cc(Cl)cc(Oc4ccc(F)cc4)c3)cc2c1)S(C)(=O)=O [Example 43, N-(3-chloro-5-(4-fluorophenoxy)phenyl)-5-(2-(methylsulfonyl)propan-2-yl)benzo[b]thiophene-2-carboxamide]"
0.019,> 50,0.039,0.019,–,"CC(C)(c1cc2cc(C(=O)Nc3cc(Cl)cc(Oc4ccc(Cl)cc4)c3)sc2cc1F)S(C)(=O)=O [Example 44, N-(3-chloro-5-(4-chlorophenoxy)phenyl)-6-fluoro-5-(2-(methylsulfonyl)propan-2-yl)benzo[b]thiophene-2-carboxamide]"
